# Laboratory results from PubChem BioAssay AID1259407 (Chemical Carcinogenesis Research Information System (CCRIS), 2018).
# The source made the active and inactive calls. How the calls were made is not given here.
# Test system: CCRIS mutagenicity, Ames/micronucleus/aberration tests
# Assay: CCRIS mutagenicity studies
# [1] = Test System: UDS RAT UROTHELIAL CELLS, Strain/Indicator: THY INCORP, Metabolic Activation: NONE
# [2] = Test System: AMES SALMONELLA TYPHIMURIUM, Strain/Indicator: TA100, Metabolic Activation: RAT, LIVER, S-9, AROCLOR 1254, Method: PREINCUBATION
# [3] = Test System: AMES SALMONELLA TYPHIMURIUM, Strain/Indicator: TA98, Metabolic Activation: NONE, Method: STANDARD PLATE
# [4] = Test System: AMES SALMONELLA TYPHIMURIUM, Strain/Indicator: TA98, Metabolic Activation: RAT, LIVER, S-9, AROCLOR 1254, Method: STANDARD PLATE
# [5] = Test System: AMES SALMONELLA TYPHIMURIUM, Strain/Indicator: TA100, Metabolic Activation: NONE, Method: STANDARD PLATE
# [6] = Test System: AMES SALMONELLA TYPHIMURIUM, Strain/Indicator: TA100, Metabolic Activation: RAT, LIVER, S-9, AROCLOR 1254, Method: STANDARD PLATE
# [7] = Test System: AMES SALMONELLA TYPHIMURIUM, Strain/Indicator: TA1535, Metabolic Activation: NONE, Method: STANDARD PLATE
# [8] = Test System: AMES SALMONELLA TYPHIMURIUM, Strain/Indicator: TA1537, Metabolic Activation: NONE, Method: STANDARD PLATE
smiles,measurement,setting,value
CCCN(COC(C)=O)N=O,mutagenic call,[1],active; positive
CI,mutagenic call,"Test System: AMES SALMONELLA TYPHIMURIUM, Strain/Indicator: TA98, Metabolic Activation: NONE, Method: GAS EXPOSURE",inactive; negative
same,mutagenic call,"Test System: AMES SALMONELLA TYPHIMURIUM, Strain/Indicator: TA98, Metabolic Activation: RAT, LIVER, S-9, PHENOBARBITAL AND BETA--NAPHTHOFLAVONE, Method: GAS EXPOSURE",inactive; negative
same,mutagenic call,"Test System: AMES SALMONELLA TYPHIMURIUM, Strain/Indicator: TA100, Metabolic Activation: NONE, Method: DESICCATOR",active; positive
same,mutagenic call,"Test System: AMES SALMONELLA TYPHIMURIUM, Strain/Indicator: TA100, Metabolic Activation: NONE, Method: GAS EXPOSURE",active; positive
same,mutagenic call,"Test System: AMES SALMONELLA TYPHIMURIUM, Strain/Indicator: TA100, Metabolic Activation: RAT, LIVER, S-9, PHENOBARBITAL AND BETA--NAPHTHOFLAVONE, Method: GAS EXPOSURE",active; positive
same,mutagenic call,"Test System: AMES SALMONELLA TYPHIMURIUM, Strain/Indicator: TA1535, Metabolic Activation: NONE, Method: GAS EXPOSURE",inactive; negative
same,mutagenic call,"Test System: AMES SALMONELLA TYPHIMURIUM, Strain/Indicator: TA1535, Metabolic Activation: RAT, LIVER, S-9, PHENOBARBITAL AND BETA--NAPHTHOFLAVONE, Method: GAS EXPOSURE",inactive; negative
same,mutagenic call,"Test System: AMES SALMONELLA TYPHIMURIUM, Strain/Indicator: TA1535, Metabolic Activation: RAT, LIVER, S-9, Method: SPOT",active; positive
same,mutagenic call,"Test System: AMES SALMONELLA TYPHIMURIUM, Strain/Indicator: TA1537, Metabolic Activation: NONE, Method: GAS EXPOSURE",inactive; negative
same,mutagenic call,"Test System: AMES SALMONELLA TYPHIMURIUM, Strain/Indicator: TA1537, Metabolic Activation: RAT, LIVER, S-9, PHENOBARBITAL AND BETA--NAPHTHOFLAVONE, Method: GAS EXPOSURE",inactive; negative
same,mutagenic call,"Test System: E. COLI, Strain/Indicator: WP2UVRA, Metabolic Activation: NONE, Method: GAS EXPOSURE",inactive; negative
same,mutagenic call,"Test System: E. COLI, Strain/Indicator: WP2UVRA, Metabolic Activation: RAT, LIVER, S-9, PHENOBARBITAL AND BETA--NAPHTHOFLAVONE, Method: GAS EXPOSURE",inactive; negative
same,mutagenic call,"Test System: MOUSE LYMPHOMA, Strain/Indicator: L5178Y (TK+/TK-), Metabolic Activation: NONE, Method: SUSPENSION/PLATE",active; positive
same,mutagenic call,"Test System: MOUSE LYMPHOMA, Strain/Indicator: L5178Y (TK+/TK-), Metabolic Activation: RAT, LIVER, S-9, AROCLOR 1254, Method: SUSPENSION/PLATE",active; positive
CCCC/C=C/C=O,mutagenic call,"Test System: AMES SALMONELLA TYPHIMURIUM, Strain/Indicator: TA100, Metabolic Activation: NONE, Method: PREINCUBATION",inactive; negative
same,mutagenic call,"Test System: AMES SALMONELLA TYPHIMURIUM, Strain/Indicator: TA100, Metabolic Activation: NONE, Method: PREINCUBATION (THREEFOLD CELL DENSITY)",active; positive
same,mutagenic call,[2],inactive; negative
same,mutagenic call,"Test System: AMES SALMONELLA TYPHIMURIUM, Strain/Indicator: TA100, Metabolic Activation: RAT, LIVER, S-9, AROCLOR 1254, Method: PREINCUBATION (THREEFOLD CELL DENSITY)",inactive; negative
same,mutagenic call,"Test System: CHINESE HAMSTER V-79, Strain/Indicator: V-79/6-THIOGUANINE, Metabolic Activation: NONE, Method: STANDARD PLATE",active; positive
same,mutagenic call,"Test System: CHINESE HAMSTER V-79, Strain/Indicator: V-79/OUABAIN, Metabolic Activation: NONE, Method: STANDARD PLATE",active; positive
C1=COc2c(c3cc4ccccc4cc3c3ccccc23)C=C1,mutagenic call,[2],active; positive
CC(=O)OCN(C)N=O,mutagenic call,"Test System: AMES SALMONELLA TYPHIMURIUM, Strain/Indicator: TA100, Metabolic Activation: HAMSTER, LIVER, CYTOSOL, Method: PREINCUBATION",active; positive
same,mutagenic call,"Test System: AMES SALMONELLA TYPHIMURIUM, Strain/Indicator: TA100, Metabolic Activation: HAMSTER, LIVER, CYTOSOL, Method: STANDARD PLATE",active; positive
same,mutagenic call,"Test System: AMES SALMONELLA TYPHIMURIUM, Strain/Indicator: TA104, Metabolic Activation: HAMSTER, LIVER, CYTOSOL, Method: PREINCUBATION",active; positive
same,mutagenic call,"Test System: AMES SALMONELLA TYPHIMURIUM, Strain/Indicator: TA104, Metabolic Activation: HAMSTER, LIVER, CYTOSOL, Method: STANDARD PLATE",active; positive
same,mutagenic call,"Test System: AMES SALMONELLA TYPHIMURIUM, Strain/Indicator: TA1535, Metabolic Activation: NONE, Method: PREINCUBATION",active; positive
same,mutagenic call,[1],active; positive
Clc1cccc(Cl)n1,mutagenic call,"Test System: AMES SALMONELLA TYPHIMURIUM, Strain/Indicator: TA97, Metabolic Activation: NONE, Method: STANDARD PLATE",inactive; negative
same,mutagenic call,[3],inactive; negative
same,mutagenic call,[4],inactive; negative
same,mutagenic call,[5],inactive; negative
same,mutagenic call,[6],inactive; negative
same,mutagenic call,"Test System: AMES SALMONELLA TYPHIMURIUM, Strain/Indicator: TA102, Metabolic Activation: NONE, Method: STANDARD PLATE",inactive; negative
same,mutagenic call,"Test System: AMES SALMONELLA TYPHIMURIUM, Strain/Indicator: TA102, Metabolic Activation: RAT, LIVER, S-9, AROCLOR 1254, Method: STANDARD PLATE",inactive; negative
O=C1OCC(C(Br)Br)=C1Br,mutagenic call,[5],active; positive
CCCCC(CC)COC(=O)c1ccc(C(=O)O)cc1 (stereo not given),mutagenic call,[3],inactive; negative
same,mutagenic call,[4],inactive; negative
same,mutagenic call,[5],inactive; negative
same,mutagenic call,[6],inactive; negative
same,mutagenic call,[7],inactive; negative
same,mutagenic call,"Test System: AMES SALMONELLA TYPHIMURIUM, Strain/Indicator: TA1535, Metabolic Activation: RAT, LIVER, S-9, AROCLOR 1254, Method: STANDARD PLATE",inactive; negative
same,mutagenic call,[8],inactive; negative
same,mutagenic call,"Test System: AMES SALMONELLA TYPHIMURIUM, Strain/Indicator: TA1537, Metabolic Activation: RAT, LIVER, S-9, AROCLOR 1254, Method: STANDARD PLATE",inactive; negative
same,mutagenic call,"Test System: AMES SALMONELLA TYPHIMURIUM, Strain/Indicator: TA1538, Metabolic Activation: NONE, Method: STANDARD PLATE",inactive; negative
same,mutagenic call,"Test System: AMES SALMONELLA TYPHIMURIUM, Strain/Indicator: TA1538, Metabolic Activation: RAT, LIVER, S-9, AROCLOR 1254, Method: STANDARD PLATE",inactive; negative
O=P(O)(O)OC(CO)CO,mutagenic call,"Test System: AMES SALMONELLA TYPHIMURIUM, Strain/Indicator: TA97, Metabolic Activation: NONE, Method: PREINCUBATION",inactive; negative
same,mutagenic call,"Test System: AMES SALMONELLA TYPHIMURIUM, Strain/Indicator: TA97, Metabolic Activation: RAT, LIVER, S-9, AROCLOR 1254, Method: PREINCUBATION",inactive; negative
same,mutagenic call,"Test System: AMES SALMONELLA TYPHIMURIUM, Strain/Indicator: TA102, Metabolic Activation: NONE, Method: PREINCUBATION",inactive; negative
same,mutagenic call,"Test System: AMES SALMONELLA TYPHIMURIUM, Strain/Indicator: TA102, Metabolic Activation: RAT, LIVER, S-9, AROCLOR 1254, Method: PREINCUBATION",inactive; negative
CCC1(CC(=O)O)OCCc2c1[nH]c1c(C(C)O)cccc21 (stereo not given),mutagenic call,[3],inactive; negative
same,mutagenic call,"Test System: AMES SALMONELLA TYPHIMURIUM, Strain/Indicator: TA98, Metabolic Activation: RAT, LIVER, S-9, Method: STANDARD PLATE",inactive; negative
same,mutagenic call,[5],inactive; negative
same,mutagenic call,"Test System: AMES SALMONELLA TYPHIMURIUM, Strain/Indicator: TA100, Metabolic Activation: RAT, LIVER, S-9, Method: STANDARD PLATE",inactive; negative
same,mutagenic call,[7],inactive; negative
same,mutagenic call,"Test System: AMES SALMONELLA TYPHIMURIUM, Strain/Indicator: TA1535, Metabolic Activation: RAT, LIVER, S-9, Method: STANDARD PLATE",inactive; negative
same,mutagenic call,[8],inactive; negative
same,mutagenic call,"Test System: AMES SALMONELLA TYPHIMURIUM, Strain/Indicator: TA1537, Metabolic Activation: RAT, LIVER, S-9, Method: STANDARD PLATE",inactive; negative
same,mutagenic call,"Test System: E. COLI, Strain/Indicator: WP2 UVRA, Metabolic Activation: NONE, Method: STANDARD PLATE",inactive; negative
same,mutagenic call,"Test System: E. COLI, Strain/Indicator: WP2 UVRA, Metabolic Activation: RAT, LIVER, S-9, Method: STANDARD PLATE",inactive; negative
